Like-named read-outs stand apart in the source and are kept apart here.
Molecular target: human PDHK2 (hPDHK2) (Homo sapiens (Human), UniProt Q15119)
Assay: Inhibitory action of PDHK activity in vitro (kinase reaction, residual PDH activity measured)
Assay type: biochemical
Procedure: In the case of human PDHK2 (hPDHK2, Genbank Accession No. NM_002611), modified hPDHK2 cDNA wherein FLAG-Tag sequence is added to the N terminal by a polymerase linkage reaction was prepared based on hPDHK2 cDNA clone (pReceiver-M01/PDK2-GeneCopoeia), and cloned into a vector (pET17b-Novagen). The recombinant construct was transformed into Escherichia coli (DH5α-TOYOBO). The recombinant clones were identified, plasmid DNA was isolated and subjected to the DNA sequence analysis. One clone which had the expected nucleic acid sequence was selected for expression work.
During the assay, the hPDHK2 enzyme concentration was set to the minimal concentration at which PDH is inhibited the most.
0.05 U/mL PDH (porcine heart PDH complex, Sigma P7032) and 1.6 μg/mL hPDHK2 were mixed in a buffer (50 mmol/L 3-morpholinopropanesulfonic acid (pH 7.0), 20 mmol/L dipotassium hydrogen phosphate, 60 mmol/L potassium chloride, 2 mmol/L magnesium chloride, 0.4 mmol/L EDTA, and 0.2% Pluronic F-68, 2 mmol/L dithiothreitol), the mixture was incubated at 4° C. overnight to give PDH/hPDHK2 complex. The test compound was diluted with dimethyl sulfoxide (DMSO). PDH/hPDHK2 complex (20 μL), test compound (1.5 μL) and 3.53 μmol/L ATP (diluted with buffer, 8.5 μL) were added to a half area 96 well UV-transparent microplate (Corning 3679), and PDHK reaction was performed at room temperature for 45 min. Instead of the test compound, DMSO (1.5 μL) was added to a control well. DMSO (1.5 μL) was added instead of the test compound to a blank well for the measurement of the maximum rate of PDH reaction, and hPDHK2 was not added. Than, 10 μL of substrates (5 mmol/L sodium pyruvate, 5 mmol/L Coenzyme A, 12 mmol/L NAD, and 5 mmol/L thiamine pyrophosphate, diluted with buffer) was added. The mixture was incubated at room temperature for 90 min, and the residual PDH activity was measured. The absorbance at 340 nm before and after PDH reaction was measured on a microplate reader to detect NADH produced by the PDH reaction. The PDHK inhibitory rate (%) of the test compound was calculated from the formula [{(PDH activity of test compound—PDH activity of control)/PDH activity of blank—PDH activity of control)}×100]. The IC50 value was calculated from the concentrations of the test compound at two points enclosing 50% inhibition of the PDHK activity.

[1] = PDHK inhibitory activity (class symbol)
[2] = read-out: PDHK inhibitory activity IC50
[3] = PDHK inhibitory activity, class symbol of IC50
[4] = PDHK inhibitory activity IC50 (μmol/L)

| IC50 [3] [nM] | IC50 [4] [nM] | SMILES | IC50 [1] [nM] | IC50 [2] [nM] | IC50 (read-out: PDHK inhibitory activity, class symbol of IC50) [nM] |
| --- | --- | --- | --- | --- | --- |
|  |  | CC(C)(CC(=O)O)n1cc(-c2cc(F)cc3c2-c2ccccc2C3(O)C(F)(F)F)cn1 (single isomer, unassigned) [compound 610] | < 100 | 41 |  |
|  |  | COc1cc(-c2cnn(C(C)(C)CC(=O)O)c2)c2c(c1)C(O)(C(F)(F)F)c1ccccc1-2 (single isomer, unassigned) [compound 614] | < 100 | 37 |  |
|  |  | COC(=O)c1cc(Cl)cc2c1-c1ccccc1C2(O)C(F)(F)F (single isomer, unassigned) [compound 617] | < 100 | 84 |  |
|  |  | COc1cc(-c2cnn(CC(C)(C)C(=O)O)c2)c2c(c1)C(O)(C(F)(F)F)c1ccccc1-2 (single isomer, unassigned) [compound 619] | < 100 | 33 |  |
|  |  | OCCCCOc1cc(-c2cnn(CCO)c2)c2c(c1)C(O)(C(F)(F)F)c1ccccc1-2 (single isomer, unassigned) [compound 624] | < 100 | 14 |  |
|  |  | CCn1cc(-c2cc(CO)c3c(c2)C(O)(C(F)(F)F)c2ccccc2-3)cn1 (single isomer, unassigned) [compound 629, 4-hydroxymethyl-2-(1-ethyl-1H-pyrazol-4-yl)-9-trifluoromethyl-9H-fluoren-9-ol] | < 100 | 45 |  |
|  |  | COC(=O)c1cc(Cl)c2c(c1)C(O)(C(F)(F)F)c1ccccc1-2 (single isomer, unassigned) [compound 647, 4-chloro-9-hydroxy-9-trifluoromethyl-9H-fluorene-2-carboxylic acid methyl ester] | 100 to 1000 | 169 |  |
|  |  | O=C(c1cc(-c2cnn(CCO)c2)c2c(c1)C(O)(C(F)(F)F)c1ccccc1-2)N1CCCC1 (single isomer, unassigned) [compound 657] | < 100 | 20 |  |
|  |  | CC(C)(C)Cn1cc(-c2cc(C(N)=O)c3c(c2)C(O)(C(F)(F)F)c2ccccc2-3)cn1 (single isomer, unassigned) [compound 659, 2-[1-(2,2-dimethyl-propyl)-1H-pyrazol-4-yl]-9-hydroxy-9-trifluoromethyl-9H-fluorene-4-carboxylic acid amide] | < 100 | 16 |  |
|  |  | CC(C)(C)Cn1cc(-c2cc(CO)c3c(c2)C(O)(C(F)(F)F)c2ccccc2-3)cn1 (single isomer, unassigned) [compound 660, 2-[1-(2,2-dimethyl-propyl)-1H-pyrazol-4-yl]-4-hydroxymethyl-9-trifluoromethyl-9H-fluoren-9-ol] | < 100 | 17 |  |
|  |  | Cc1cc(-c2cnn(CC(CO)CO)c2)c2c(c1)C(O)(C(F)(F)F)c1ccccc1-2 (single isomer, unassigned) [compound 663] | < 100 | 18 |  |
|  |  | CC(C)=Cc1cc(-c2cnn(C(CO)CO)c2)c2c(c1)C(O)(C(F)(F)F)c1ccccc1-2 (single isomer, unassigned) [compound 664] | < 100 | 15 |  |
|  |  | CC(C)Cc1cc(-c2cnn(C(CO)CO)c2)c2c(c1)C(O)(C(F)(F)F)c1ccccc1-2 (single isomer, unassigned) [compound 665] | < 100 | 23 |  |
|  |  | NC(=O)c1cc(-c2cnn(CC3CCCCC3)c2)cc2c1-c1ccccc1C2(O)C(F)(F)F (single isomer, unassigned) [compound 667, 2-(1-cyclohexylmethyl-1H-pyrazol-4-yl)-9-hydroxy-9-trifluoromethyl-9H-fluorene-4-carboxylic acid amide] | < 100 | 15 |  |
|  |  | OCc1cc(-c2cnn(CC3CCCCC3)c2)cc2c1-c1ccccc1C2(O)C(F)(F)F (single isomer, unassigned) [compound 668] | < 100 | 17 |  |
|  |  | CC(C)(C)CCc1cc(-c2cnn(C(CO)CO)c2)c2c(c1)C(O)(C(F)(F)F)c1ccccc1-2 (single isomer, unassigned) [compound 669] | < 100 | 17 |  |

| IC50 [3] [nM] | IC50 [4] [nM] | SMILES | IC50 [1] [nM] | IC50 [2] [nM] | IC50 (read-out: PDHK inhibitory activity, class symbol of IC50) [nM] |
| --- | --- | --- | --- | --- | --- |
|  |  | CC(C)(O)Cn1cc(-c2cc(F)cc3c2-c2ccccc2C3(O)C(F)(F)F)cn1 (single isomer, unassigned) [compound 674] | < 100 | 30 |  |
|  |  | OCC(CO)c1ncc(-c2cc(F)cc3c2-c2ccccc2C3(O)C(F)(F)F)o1 (single isomer, unassigned) [compound 682] | < 100 | 79 |  |
|  |  | OCC(CO)c1noc(-c2cc(F)cc3c2-c2ccccc2C3(O)C(F)(F)F)n1 (single isomer, unassigned) [compound 685] | 100 to 1000 | 338 |  |
|  |  | CC(C)(O)C(C)(C)n1cc(-c2cc(F)cc3c2-c2ccccc2C3(O)C(F)(F)F)cn1 (single isomer, unassigned) [compound 687] | < 100 | 51 |  |
|  |  | Cc1cc(-c2cnn(CCCc3nn[nH]n3)c2)c2c(c1)C(O)(C(F)(F)F)c1ccccc1-2 (single isomer, unassigned) [compound 691] | < 100 | 30 |  |
|  |  | CC(CO)(CO)n1cc(-c2cccc3c2-c2ccccc2C3(O)C(F)(F)F)cn1 (single isomer, unassigned) [compound 702] | < 100 | 30 |  |
|  |  | OCC(CO)(CO)n1cc(-c2cccc3c2-c2ccccc2C3(O)C(F)(F)F)cn1 (single isomer, unassigned) [compound 706] | < 100 | 31 |  |
|  |  | OC1(C(F)(F)F)c2ccccc2-c2c(Cl)cc(F)cc21 (single isomer, unassigned; (+)) [Compound No. 526, (+)-4-chloro-2-fluoro-9-trifluoromethyl-9H-fluoren-9-ol] |  | 397 | 100 to 1000 |
|  |  | CC(CO)(CO)n1cc(-c2cc(F)cc3c2-c2ccccc2C3(O)C(F)(F)F)cn1 (single isomer, unassigned; (+)) [compound 673, (+)-2-[4-(2-fluoro-9-hydroxy-9-trifluoromethyl-9H-fluoren-4-yl)-pyrazol-1-yl]-2-methyl-propane-1,3-diol] | < 100 | 22 |  |
|  |  | OCC(CO)(CO)n1cc(-c2cc(F)cc3c2-c2ccccc2C3(O)C(F)(F)F)cn1 (single isomer, unassigned; (+)) [compound 703, (+)-2-[4-(2-fluoro-9-hydroxy-9-trifluoromethyl-9H-fluoren-4-yl)-pyrazol-1-yl]-2-hydroxymethyl-propane-1,3-diol] | < 100 | 20 |  |
|  |  | CCn1cc(-c2cc(C(N)=O)c3c(c2)C(O)(C(F)(F)F)c2ccccc2-3)cn1 (single isomer, unassigned; (-)) [compound 630, (−)-2-(1-ethyl-1H-pyrazol-4-yl)-9-hydroxy-9-trifluoromethyl-9H-fluorene-4-carboxylic acid amide] | < 100 | 20 |  |
| > 1000 | 3330 | Cc1cc(Cl)c2c(c1)[C@](O)(C(F)(F)F)c1ccccc1-2 (stereo in doubt) [compound 520] |  |  |  |
| < 100 | 17 | Cc1cc(-c2cnn(CCO)c2)c2c(c1)[C@@](O)(C(F)(F)F)c1ccccc1-2 (stereo in doubt) [compound 529] |  |  |  |
| < 100 | 20 | OCCn1cc(-c2cc(F)cc3c2-c2ccccc2[C@]3(O)C(F)(F)F)cn1 (stereo in doubt) [compound 531] |  |  |  |
| < 100 | 16 | Cc1cc(-c2cnn(CC(N)=O)c2)c2c(c1)[C@@](O)(C(F)(F)F)c1ccccc1-2 (stereo in doubt) [compound 532] |  |  |  |

| SMILES | IC50 [3] [nM] | IC50 [4] [nM] | IC50 [1] [nM] | IC50 [2] [nM] | IC50 (read-out: PDHK inhibitory activity, class symbol of IC50) [nM] |
| --- | --- | --- | --- | --- | --- |
| Cc1cc(-c2cnn(CCC(=O)O)c2)c2c(c1)C(O)(C(F)(F)F)c1ccccc1-2 (single isomer, unassigned; (+)) [compound 538, (+)-3-[4-(9-hydroxy-2-methyl-9-trifluoromethyl-9H-fluoren-4-yl)-pyrazol-1-yl]-propionic acid] | < 100 |  |  | 26 |  |
| Cc1cc(-c2cnn(CCCC(=O)O)c2)c2c(c1)C(O)(C(F)(F)F)c1ccccc1-2 (single isomer, unassigned; (+)) [compound 539, (+)-4-[4-(9-hydroxy-2-methyl-9-trifluoromethyl-9H-fluoren-4-yl)-pyrazol-1-yl]-butyric acid] | < 100 |  |  | 27 |  |
| OCC(CO)n1cc(-c2cc(F)cc3c2-c2ccccc2C3(O)C(F)(F)F)cn1 (single isomer, unassigned; (+)) [compound 595, (+)-2-[4-(2-fluoro-9-hydroxy-9-trifluoromethyl-9H-fluoren-4-yl)-pyrazol-1-yl]-propane-1,3-diol] | < 100 |  |  | 22 |  |
